This is an account of results in article PMC7891606 (Clinical Pharmacology in Drug Development, 2020).

A short description of one data set: clinical. The note with it: male, human, in vivo, po, 100 mg.
The conditions of data set [1]: after metabolism by peripheral AADC and COMT; cited from earlier work.
The conditions of data set [2]: period 1, before opicapone.
Data set [3] can be described thus: Effect of opicapone on plasma L‐dopa and 3‐OMD exposure. The data set is classed as in vivo, healthy Japanese adult males.
Another data set can be described thus: Safety and tolerability. In kind it is in vivo, healthy Japanese adult males. The note with it: for Tolerability: opicapone tablets 5 to 50 mg once daily for 11 days.
The conditions of data set [4]: previous pharmacokinetic study; cited from earlier work.
The mark [5] stands for this setting: opicapone 50 mg, period 2, N 20.
The mark [6] stands for this setting: opicapone 50 mg, period 3, N 19.

As usually defined, the Cmax is the peak of the concentration-time curve. As usually defined, the Tmax is the time from dosing to the highest level.

“Also recorded” adds a separate entry of the source. Read-outs that look alike come from different tables or passages of the source.

On to `N[C@@H](Cc1ccc(O)c(O)c1)C(=O)O` [L‐dopa, levodopa], for which, in the data set “clinical”, the Cmax was 1950 ± 581 ng/mL. Also, in the data set “clinical”, the Tmax turned out to be 30 min. The “Bioavailable dose in the brain” value in data set [1] is “approximately 1 % of the ingested dose”. The “tmax in plasma (median (min-max))” value is 0.50 (0.50‐2.00) h in data set [2] (opicapone 5 mg cohort (A), first dose of L-dopa/carbidopa); 0.50 (0.50‐2.00) h in data set [2] (opicapone 10 mg cohort (B), second dose of L-dopa/carbidopa); 0.50 (0.50‐2.00) h in data set [2] (opicapone 50 mg cohort (D), first dose of L-dopa/carbidopa).

On to `Cc1c(Cl)c(C)[n+]([O-])c(Cl)c1-c1noc(-c2cc(O)c(O)c([N+](=O)[O-])c2)n1` [Opicapone, opicapone], for which, in data set [3] (especially at the highest opicapone doses), the “Change of Cmax and AUC of 3‐OMD following opicapone administration” value was “decreased notably”. The “Change of AUC of L‐dopa with increasing opicapone dose” value in data set [3] (opicapone 5-50 mg, plateau at 25 mg and higher) is “increased with increasing opicapone dose; also recorded: tended to increase with increasing opicapone dose; also recorded: plateau in the increase in L‐dopa exposure”. The “Number (%) of Subjects Reporting Adverse Event: Diarrhea” value in the data set “Safety and tolerability” (opicapone 5 mg, period 3, N 20) is reported as 1 (5.0) Number (%) of Subjects. Also, the “Number (%) of Subjects Reporting Adverse Event: Nausea” value is 3 (15.0) Number (%) of Subjects in the data set “Safety and tolerability” (opicapone 25 mg, period 3, N 20); 5 (26.3) Number (%) of Subjects in the data set “Safety and tolerability” (setting [6]). In addition, in “Safety and tolerability” (opicapone 50 mg cohort), the “Subjects who stopped treatment due to adverse event (infectious enteritis)” value turned out to be 1 subject. Besides, the “Number (%) of Subjects Reporting Adverse Event: All” value in “Safety and tolerability” (opicapone 50 mg, period 2 (opicapone once daily 11 days), N 20) is 2 (10.0) Number (%) of Subjects. Moreover, the “Number (%) of Subjects Reporting Adverse Event: Enteritis, infectious” value in the data set “Safety and tolerability” (setting [5]) is on record as 1 (5.0) Number (%) of Subjects. Besides, in the data set “Safety and tolerability” (setting [5]), the “Number (%) of Subjects Reporting Adverse Event: Pharyngitis” value is given as 1 (5.0) Number (%) of Subjects. In addition, the “Number (%) of Subjects Reporting Adverse Event: Vomiting” value in the data set “Safety and tolerability” (setting [6]) was 3 (15.8) Number (%) of Subjects. For the same molecule, the Tolerability entry in “Safety and tolerability” is “well tolerated; also recorded: well tolerated with no safety issues”; in “Safety and tolerability” (listed as opicapone), “well tolerated at all doses with no major safety issues”. For the same molecule, the “Causal relationship of adverse events to opicapone or L‐dopa/carbidopa” value in the data set “Safety and tolerability” (period 2) is reported as “no adverse events reported in period 2 were thought to be related”; in the data set “Safety and tolerability” (period 3) it was “at least possibly related”. The “Increase of L‐dopa trough levels and extent of exposure compared with entacapone” value in data set [4] was “superior response to entacopone”.
